Test results as given in ChEMBL document CHEMBL4190285, “Borapetoside E, a Clerodane Diterpenoid Extracted from Tinospora crispa, Improves Hyperglycemia and Hyperlipidemia in High-Fat-Diet-Induced Type 2 Diabetes Mice” (J Nat Prod, 2017).
Active and inactive are the calls of the source. The rule behind the calls is not given here.

Assays:
Mus musculus [1] = experiment: Effect on respiratory exchange ratios in HFD-induced obese C57BL/6J mouse at 40 mg/kg, ip administered twice daily for 2.5 days incubated for 12.6 hrs under dark condition followed by redosing on day 3 for 2 times; format: functional, organism-based
Mus musculus [2] = experiment: Antihyperlipidemic activity in high fat diet-induced obese C57BL/6J mouse assessed as serum free fatty acid levels at 40 mg/kg, ip administered twice daily for 2.5 days measured at 2 hrs post last dose (reference value: 1.41 +/- 0.3 mmol/L); format: functional
Mus musculus [3] = experiment: Down regulation of HMGCS mRNA expression in HFD-induced obese C57BL/6J mouse liver at 20 to 40 mg/kg, ip administered twice daily for 2.5 days measured at 2 hrs post last dose by RT-PCR analysis; format: functional, organism-based
Mus musculus [4] = experiment: Antihyperlipidemic activity in high fat diet-induced obese C57BL/6J mouse assessed as serum LDL-C levels at 20 mg/kg, ip administered twice daily for 2.5 days measured at 2 hrs post last dose (reference value: 2.54 +/- 0.87 mmol/L); format: functional
Mus musculus [5] = experiment: Antihyperlipidemic activity in high fat diet-induced obese C57BL/6J mouse assessed as serum HDL-C levels at 40 mg/kg, ip administered twice daily for 2.5 days measured at 2 hrs post last dose (reference value: 1.82 +/- 0.58 mmol/L); format: functional
Mus musculus [6] = experiment: Down regulation of ACL1 mRNA expression in HFD-induced obese C57BL/6J mouse adipose tissue at 20 to 40 mg/kg, ip administered twice daily for 2.5 days measured at 2 hrs post last dose by RT-PCR analysis; format: functional, organism-based
Mus musculus [7] = experiment: Antiobesity activity in HFFD-induced obese C57BL/6J mouse assessed as reduction in body weight at 40 mg/kg, ip administered twice daily for 2.5 days followed by once daily dosing up to 16 days relative to control; format: functional; design: scale not given: the % may be the effect or the level left
Mus musculus [8] = experiment: Effect on respiratory exchange ratios in HFD-induced obese C57BL/6J mouse at 40 mg/kg, ip administered twice daily for 2.5 days measured up to 12.6 hrs under dark condition; format: functional, organism-based
Mus musculus [9] = experiment: Antihyperlipidemic activity in high fat diet-induced obese C57BL/6J mouse assessed as serum triglyceride levels at 20 mg/kg, ip administered twice daily for 2.5 days measured at 2 hrs post last dose (reference value: 1.31 +/- 0.48 mmol/L); format: functional
Mus musculus [10] = experiment: Antihyperglycemic activity in high fat diet-induced obese C57BL/6J mouse assessed as reduction in blood glucose level at 40 mg/kg, ip administered as single dose measured after 36 hrs; format: functional, organism-based
Mus musculus [11] = experiment: Increase in carbon dioxide production in HFD-induced obese C57BL/6J mouse at 40 mg/kg, ip administered twice daily for 2.5 days incubated for 12.6 hrs under dark condition followed by redosing on day 3 for 2 times; format: functional, organism-based
Mus musculus [12] = experiment: Down regulation of SREBP2 mRNA expression in HFD-induced obese C57BL/6J mouse adipose tissue at 20 to 40 mg/kg, ip administered twice daily for 2.5 days measured at 2 hrs post last dose by RT-PCR analysis; format: functional, organism-based
Mus musculus [13] = experiment: Increase in phosphorylated AMPKalpha level in HFFD-induced obese C57BL/6J mouse liver at 20 to 40 mg/kg, ip administered twice daily for 2.5 days measured at 2 hrs post last dose by Western blot analysis; format: functional, organism-based
Mus musculus [14] = experiment: Antihyperglycemic activity in high fat diet-induced obese C57BL/6J mouse assessed as reduction in blood glucose level at 20 to 40 mg/kg, ip administered twice daily for 2.5 days measured after 2 hrs post last dose; format: functional, organism-based
Mus musculus [15] = experiment: Antihyperlipidemic activity in high fat diet-induced obese C57BL/6J mouse assessed as serum total cholesterol levels at 40 mg/kg, ip administered twice daily for 2.5 days measured at 2 hrs post last dose (reference value: 4.56 +/- 1.01 mmol/L); format: functional
Mus musculus [16] = experiment: Improvement in serum ALT level in HFFD-induced obese C57BL/6J mouse assessed as serum ALT level at 40 mg/kg, ip administered twice daily for 2.5 days followed by once daily dosing up to 16 days measured at 2 hrs post last dose (reference value: 20.49 +/- 4.5 IU/L); format: functional
Mus musculus [17] = experiment: Antihyperlipidemic activity in high fat diet-induced obese C57BL/6J mouse assessed as serum HDL-C levels at 20 mg/kg, ip administered twice daily for 2.5 days measured at 2 hrs post last dose (reference value: 1.82 +/- 0.58 mmol/L); format: functional
Mus musculus [18] = experiment: Antihyperlipidemic activity in high fat diet-induced obese C57BL/6J mouse assessed as reduction in liver triglyceride levels at 20 to 40 mg/kg, ip administered twice daily for 2.5 days measured at 2 hrs post last dose; format: functional, organism-based
Mus musculus [19] = experiment: Antihyperglycemic activity in high fat diet-induced obese C57BL/6J mouse assessed as reduction in blood glucose level at 20 to 40 mg/kg, ip administered twice daily for 2.5 days measured at 3 days post last dose; format: functional, organism-based
Mus musculus [20] = experiment: Improvement in insulin resistance in high fat diet-induced obese C57BL/6J mouse assessed as increase in phosphorylated GSK3beta expression in skeletal muscle at 40 mg/kg, ip administered twice daily for 2.5 days measured at 2 hrs post last dose by Western blot analysis; format: functional, organism-based
Mus musculus [21] = experiment: Toxicity in HFFD-induced obese C57BL/6J mouse assessed as serum creatinine kinase level at 40 mg/kg, ip administered twice daily for 2.5 days followed by once daily dosing up to 16 days measured at 2 hrs post last dose (reference value: 551.93 +/- 126.48 U/L); format: organism-based; details: in vivo
Mus musculus [22] = experiment: Antihyperlipidemic activity in high fat diet-induced obese C57BL/6J mouse assessed as reduction in cholesterol level in epididymis adipose tissue at 20 to 40 mg/kg, ip administered twice daily for 2.5 days measured at 2 hrs post last dose; format: functional, organism-based
Mus musculus [23] = experiment: Improvement in insulin resistance in high fat diet-induced obese C57BL/6J mouse assessed as reduction in blood glucose AUC at 40 mg/kg, ip administered as single dose pretreated for 2 hrs followed by insulin challenge measured up to 2 hrs by ITT; format: functional, organism-based
Mus musculus [24] = experiment: Improvement in insulin resistance in high fat diet-induced obese C57BL/6J mouse assessed as increase in phosphorylated GSK3beta level in liver at 40 mg/kg, ip administered twice daily for 2.5 days measured at 2 hrs post last dose by Western blot analysis; format: functional, organism-based
Mus musculus [25] = experiment: Down regulation of HMGCR mRNA expression in HFD-induced obese C57BL/6J mouse adipose tissue at 20 to 40 mg/kg, ip administered twice daily for 2.5 days measured at 2 hrs post last dose by RT-PCR analysis; format: functional, organism-based
Mus musculus [26] = experiment: Antihyperlipidemic activity in high fat diet-induced obese C57BL/6J mouse assessed as reduction in liver free fatty acid level at 20 to 40 mg/kg, ip administered twice daily for 2.5 days measured at 2 hrs post last dose; format: functional, organism-based
Mus musculus [27] = experiment: Toxicity in HFFD-induced obese C57BL/6J mouse assessed as serum creatinine level at 40 mg/kg, ip administered twice daily for 2.5 days followed by once daily dosing up to 16 days measured at 2 hrs post last dose (reference value: 100.67 +/- 17.2 umol/L); format: organism-based; details: in vivo
Mus musculus [28] = experiment: Improvement in insulin resistance in high fat diet-induced obese C57BL/6J mouse assessed as increase in GLUT2 expression in skeletal muscle at 40 mg/kg, ip administered twice daily for 2.5 days measured at 2 hrs post last dose by Western blot analysis; format: functional, organism-based

COC(=O)C1=CCC[C@H]2[C@](C)(C[C@@H](O[C@@H]3O[C@H](CO)[C@@H](O)[C@H](O)[C@H]3O)c3ccoc3)[C@H]3C[C@H](OC3=O)[C@@]12C
Activity (Mus musculus [1]): inactive
Activity (Mus musculus [2]): 0.82 mmol/L
Activity (Mus musculus [3]): Active
Activity (Mus musculus [4]): 2.21 mmol/L
Activity (Mus musculus [5]): 1.31 mmol/L
Activity (Mus musculus [6]): Active
Activity (Mus musculus [7]): 8.7%
Activity (Mus musculus [8]): inactive
Activity (Mus musculus [9]): 1.09 mmol/L
Activity (Mus musculus [10]): Active
Activity (Mus musculus [11]): Active
Activity (Mus musculus [12]): Active
Activity (Mus musculus [13]): inactive
Activity (Mus musculus [14]): Active
Activity (Mus musculus [15]): 2.24 mmol/L
Activity (Mus musculus [16]): 15.75 IU/L
Activity (Mus musculus [17]): 1.2 mmol/L
Activity (Mus musculus [18]): Active
Activity (Mus musculus [19]): Active
Activity (Mus musculus [20]): Active
Activity (Mus musculus [21]): 520.4 U/L
Activity (Mus musculus [22]): Active
Activity (Mus musculus [23]): Active
Activity (Mus musculus [24]): Active
Activity (Mus musculus [25]): Active
Activity (Mus musculus [26]): Active
Activity (Mus musculus [27]): 86.37 µmol/L
Activity (Mus musculus [28]): Active
